Measurements reported in BindingDB's records for doi:10.1016/j.bmcl.2017.10.036 (Williams College, 2017).

Biological target: T1, Histidine kinase (Caulobacter vibrioides, UniProt Q9X688)
T1 sequence (Q9X688 whole entry): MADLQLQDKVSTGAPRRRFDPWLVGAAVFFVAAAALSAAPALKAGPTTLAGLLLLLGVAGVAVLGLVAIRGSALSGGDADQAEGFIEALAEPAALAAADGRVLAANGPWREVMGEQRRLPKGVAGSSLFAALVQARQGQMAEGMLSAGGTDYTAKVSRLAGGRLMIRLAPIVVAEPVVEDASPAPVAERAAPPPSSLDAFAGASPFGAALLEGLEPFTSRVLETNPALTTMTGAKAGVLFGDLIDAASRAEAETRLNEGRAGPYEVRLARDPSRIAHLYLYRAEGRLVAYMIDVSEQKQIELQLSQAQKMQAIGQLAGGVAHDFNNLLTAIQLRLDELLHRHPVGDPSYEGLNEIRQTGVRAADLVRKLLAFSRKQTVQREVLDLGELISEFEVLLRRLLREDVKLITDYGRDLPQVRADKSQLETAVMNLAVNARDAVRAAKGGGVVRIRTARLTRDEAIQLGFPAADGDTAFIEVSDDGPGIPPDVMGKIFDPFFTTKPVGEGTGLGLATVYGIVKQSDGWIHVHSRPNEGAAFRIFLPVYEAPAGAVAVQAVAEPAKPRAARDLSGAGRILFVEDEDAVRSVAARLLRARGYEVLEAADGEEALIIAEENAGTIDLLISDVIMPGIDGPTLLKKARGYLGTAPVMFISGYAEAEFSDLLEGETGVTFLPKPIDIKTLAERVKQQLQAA
Test: Inhibition of recombinant Caulobacter vibrioides cell cycle histidine kinase CckA deltaTM mutant DHp domain (70 to 691 residues) expressed in Escherichia coli in presence of varying levels of ATP measured every 60 secs for 2 hrs by PK/LDH enzyme coupled assay

Q: `Oc1cc(O)c(-c2n[nH]cc2-c2ccc3c(c2)OCCO3)cc1Cl` was tested. Which IC50 did it give?
A: 32.3 µM

Q: With `COc1ccc(-c2c(-c3cc(Cl)c(O)cc3O)n[nH]c2C)cc1` as the molecule, how does the IC50 read?
A: 12.3 µM

Q: With `CCc1cc(-c2n[nH]c(C)c2-c2ccc3c(c2)OCCO3)c(O)cc1O` as the molecule, how does the IC50 read?
A: 28 µM

Q: How did the IC50 turn out when `Cc1[nH]nc(-c2cc(Cl)c(O)cc2O)c1-c1ccc2c(c1)OCCO2` [4-chloro-6-[4-(2,3-dihydro-1,4-benzodioxin-6-yl)-5-methyl-1H-pyrazol-3-yl]benzene-1,3-diol] was run?
A: 11.2 µM

Q: Which IC50 does the source give for `CCNC(=O)c1noc(-c2cc(C(C)C)c(O)cc2O)c1-c1ccc(CN2CCOCC2)cc1` [5-[2,4-dihydroxy-5-(propan-2-yl)phenyl]-N-ethyl-4-[4-(morpholin-4-ylmethyl)phenyl]-1,2-oxazole-3-carboxamide] here?
A: 7.3 µM
